In patent US9073940B2, “Tricyclic pyrazol amine derivatives” (MERCK SERONO SA, priority 2009, dated 2015):

System: 4 PI3K isoforms (Human recombinant GST-PI3K)
Assay: PI3K scintillation proximity assay, best IC50 obtained with the four isoforms (alpha, beta, delta, gamma)
Format: biochemical
Conditions: best IC50 obtained with the four isoforms of PI3K; read-out: Best potency measured on the 4 PI3K isoforms

| SMILES | IC50 |
| --- | --- |
| O=C(c1nn([C@H]2CCCN(CCC3CCOCC3)C2)c2c1CS(=O)(=O)c1ncccc1-2)N1CCOCC1 (single isomer, unassigned) [Example 422, 3-(morpholin-4-ylcarbonyl)-1-{1-[2-(tetrahydro-2H-pyran-4-yl)ethyl]piperidin-3-yl}-1,4-dihydropyrazolo[3′,4′:4,5]thiopyrano[2,3-b]pyridine 5,5-dioxide] | 16 nM |
| O=C(c1nn([C@@H]2CCCN(CCC3CCOCC3)C2)c2c1CS(=O)(=O)c1ncccc1-2)N1CCOCC1 (single isomer, unassigned) [Example 423, 3-(morpholin-4-ylcarbonyl)-1-{1-[2-(tetrahydro-2H-pyran-4-yl)ethyl]piperidin-3-yl}-1,4-dihydropyrazolo[3′,4′:4,5]thiopyrano[2,3-b]pyridine 5,5-dioxide] | 99 nM |
| COc1cccc2c1S(=O)(=O)Cc1c(C(=O)N3CCOCC3)nn([C@H]3CCCN(CCN4CCOCC4)C3)c1-2 (single isomer, unassigned) [Example 424, 6-methoxy-3-(morpholin-4-ylcarbonyl)-1-[1-(2-morpholin-4-ylethyl)piperidin-3-yl]-1,4-dihydrothiochromeno[4,3-c]pyrazole 5,5-dioxide] | 59 nM |
| COCCN1CCC[C@H](n2nc(C(=O)N3CCOCC3)c3c2-c2cccc(OC)c2S(=O)(=O)C3)C1 (single isomer, unassigned) [Example 428, 6-methoxy-1-[1-(2-methoxyethyl)piperidin-3-yl]-3-(morpholin-4-ylcarbonyl)-1,4-dihydrothiochromeno[4,3-c]pyrazole 5,5-dioxide] | 128 nM |
| COC(=O)CCN1CCC[C@H](n2nc(C(=O)N3CCOCC3)c3c2-c2ccccc2S(=O)(=O)C3)C1 (single isomer, unassigned) [Example 433, methyl 3-{3-[3-(morpholin-4-ylcarbonyl)-5,5-dioxidothiochromeno[4,3-c]pyrazol-1(4H)-yl]piperidin-1-yl}propanoate] | 48 nM |
| COCCN1CCC[C@H](n2nc(C(=O)N3CCOCC3)c3c2-c2cccc(F)c2S(=O)(=O)C3)C1 (single isomer, unassigned) [Example 434, 6-Fluoro-1-[1-(2-methoxyethyl)piperidin-3-yl]-3-(morpholin-4-ylcarbonyl)-1,4-dihydrothiochromeno[4,3-c]pyrazole 5,5-dioxide] | 31 nM |
| O=C1CCCN1CCN1CCC[C@H](n2nc(C(=O)N3CCOCC3)c3c2-c2ccccc2S(=O)(=O)C3)C1 (single isomer, unassigned) [Example 440, 1-(2-{3-[3-(morpholin-4-ylcarbonyl)-5,5-dioxidothiochromeno[4,3-c]pyrazol-1(4H)-yl]piperidin-1-yl}ethyl)pyrrolidin-2-one] | 80 nM |
| COc1cccc2c1S(=O)(=O)Cc1c(C(=O)N3CCOCC3)nn([C@H]3CCCN(CCN4CC(F)(F)C4)C3)c1-2 (single isomer, unassigned) [Example 442, 1-{1-[2-(3,3-difluoroazetidin-1-yl)ethyl]piperidin-3-yl}-6-methoxy-3-(morpholin-4-ylcarbonyl)-1,4-dihydrothiochromeno[4,3-c]pyrazole 5,5-dioxide] | 40 nM |
| COc1cccc2c1S(=O)(=O)Cc1c(C(=O)N3CCOCC3)nn([C@H]3CCCN(CCN4CC(F)C4)C3)c1-2 (single isomer, unassigned) [Example 443, 1-{1-[2-(3-fluoroazetidin-1-yl)ethyl]piperidin-3-yl}-6-methoxy-3-(morpholin-4-ylcarbonyl)-1,4-dihydrothiochromeno[4,3-c]pyrazole 5,5-dioxide] | 62 nM |
| NCCN1CCC[C@H](n2nc(C(=O)N3CCOCC3)c3c2-c2ccccc2S(=O)(=O)C3)C1 (single isomer, unassigned) [Example 452, 2-{3-[3-(morpholin-4-ylcarbonyl)-5,5-dioxidothiochromeno[4,3-c]pyrazol-1(4H)-yl]piperidin-1-yl}ethanamine] | 73 nM |
| COCCN1CCC[C@H](n2nc(C(=O)N3CCOCC3)c3c2-c2cccc(C)c2S(=O)(=O)C3)C1 (single isomer, unassigned) [Example 467, 1-[1-(2-methoxyethyl)piperidin-3-yl]-6-methyl-3-(morpholin-4-ylcarbonyl)-1,4-dihydrothiochromeno[4,3-c]pyrazole 5,5-dioxide] | 96 nM |
| O=C(c1nn(C2CCCN(c3cccnc3)C2)c2c1CS(=O)(=O)c1ccccc1-2)N1CCOCC1 (single isomer, unassigned) [Example 484, 3-(morpholin-4-ylcarbonyl)-1-[1-pyridin-3-ylpiperidin-3-yl]-1,4-dihydrothiochromeno[4,3-c]pyrazole 5,5-dioxide] | 48 nM |
| O=C(c1nn([C@H]2CCCN(CC3CCOCC3)C2)c2c1CS(=O)(=O)c1ccccc1-2)N1CCOCC1 (stereo in doubt) [Example 361, 3-(morpholin-4-ylcarbonyl)-1-[1-(tetrahydro-2H-pyran-4-ylmethyl)piperidin-3-yl]-1,4-dihydrothiochromeno[4,3-c]pyrazole 5,5-dioxide] | 25 nM |
| O=C(c1nn([C@H]2CCCN(C3CCOCC3)C2)c2c1CS(=O)(=O)c1ccccc1-2)N1CCOCC1 (stereo in doubt) [Example 374, 3-(morpholin-4-ylcarbonyl)-1-[1-(tetrahydro-2H-pyran-4-yl)piperidin-3-yl]-1,4-dihydrothiochromeno[4,3-c]pyrazole 5,5-dioxide] | 80 nM |
| COc1ccc2c(c1)S(=O)(=O)Cc1c(C(=O)N3CCOCC3)nn([C@H]3CCCN(C4CCCOC4)C3)c1-2 (stereo in doubt) [Example 389, 7-methoxy-3-(morpholin-4-ylcarbonyl)-1-[1-(tetrahydro-2H-pyran-3-yl)piperidin-3-yl]-1,4-dihydrothiochromeno[4,3-c]pyrazole 5,5-dioxide] | 24 nM |
| COc1ccc2c(c1)S(=O)(=O)Cc1c(C(=O)N3CCOCC3)nn([C@H]3CCCN(CC4CCOC4)C3)c1-2 (stereo in doubt) [Example 395, 7-methoxy-3-(morpholin-4-ylcarbonyl)-1-[1-(tetrahydrofuran-3-ylmethyl)piperidin-3-yl]-1,4-dihydrothiochromeno[4,3-c]pyrazole 5,5-dioxide] | 44 nM |
| O=C(c1nn([C@H]2CCCN(C3CCCOC3)C2)c2c1CS(=O)(=O)c1c(F)cccc1-2)N1CCOCC1 (stereo in doubt) [Example 425, 6-Fluoro-3-(morpholin-4-ylcarbonyl)-1-[1-(tetrahydro-2H-pyran-3-yl)piperidin-3-yl]-1,4-dihydrothiochromeno[4,3-c]pyrazole 5,5-dioxide] | 25 nM |
| O=C(c1nn([C@H]2CCCN(C3CCOCC3)C2)c2c1CS(=O)(=O)c1c(F)cccc1-2)N1CCOCC1 (stereo in doubt) [Example 427, 6-fluoro-3-(morpholin-4-ylcarbonyl)-1-[1-(tetrahydro-2H-pyran-4-yl)piperidin-3-yl]-1,4-dihydrothiochromeno[4,3-c]pyrazole 5,5-dioxide] | 13 nM |
| O=C(CCN1CCC[C@H](n2nc(C(=O)N3CCOCC3)c3c2-c2ccccc2S(=O)(=O)C3)C1)N1CC(F)(F)C1 (stereo in doubt) [Example 429, 1-{1-[3-(3,3-difluoroazetidin-1-yl)-3-oxopropyl]piperidin-3-yl}-3-(morpholin-4-ylcarbonyl)-1,4-dihydrothiochromeno[4,3-c]pyrazole 5,5-dioxide] | 39 nM |
| COCCN(C)CCN1CCC[C@H](n2nc(C(=O)N3CCOCC3)c3c2-c2ccccc2S(=O)(=O)C3)C1 (stereo in doubt) [Example 438, 2-methoxy-N-methyl-N-(2-{3-[3-(morpholin-4-ylcarbonyl)-5,5-dioxidothiochromeno[4,3-c]pyrazol-1(4H)-yl]piperidin-1-yl}ethyl)ethanamine] | 45 nM |
| COC1CCN(CCN2CCC[C@H](n3nc(C(=O)N4CCOCC4)c4c3-c3ccccc3S(=O)(=O)C4)C2)C1 (stereo in doubt) [Example 439, 1-{1-[2-(3-methoxypyrrolidin-1-yl)ethyl]piperidin-3-yl}-3-(morpholin-4-ylcarbonyl)-1,4-dihydrothiochromeno[4,3-c]pyrazole 5,5-dioxide] | 25 nM |
| O=C(CCN1CCC[C@H](n2nc(C(=O)N3CCOCC3)c3c2-c2ccccc2S(=O)(=O)C3)C1)N1CCC(F)(F)C1 (stereo in doubt) [Example 441, 1-{1-[3-(3,3-difluoropyrrolidin-1-yl)-3-oxopropyl]piperidin-3-yl}-3-(morpholin-4-ylcarbonyl)-1,4-dihydrothiochromeno[4,3-c]pyrazole 5,5-dioxide] | 41 nM |
| CC(=O)NCCN1CCC[C@H](n2nc(C(=O)N3CCOCC3)c3c2-c2ccccc2S(=O)(=O)C3)C1 (stereo in doubt) [Example 444, N-(2-{3-[3-(morpholin-4-ylcarbonyl)-5,5-dioxidothiochromeno[4,3-c]pyrazol-1(4H)-yl]piperidin-1-yl}ethyl)acetamide] | 105 nM |
| COCCNCCN1CCC[C@H](n2nc(C(=O)N3CCOCC3)c3c2-c2ccccc2S(=O)(=O)C3)C1 (stereo in doubt) [Example 445, 2-methoxy-N-(2-{3-[3-(morpholin-4-ylcarbonyl)-5,5-dioxidothiochromeno[4,3-c]pyrazol-1(4H)-yl]piperidin-1-yl}ethyl)ethanamine] | 34 nM |
| COC1CN(CCN2CCC[C@H](n3nc(C(=O)N4CCOCC4)c4c3-c3ccccc3S(=O)(=O)C4)C2)C1 (stereo in doubt) [Example 446, 1-{1-[2-(3-methoxyazetidin-1-yl)ethyl]piperidin-3-yl}-3-(morpholin-4-ylcarbonyl)-1,4-dihydrothiochromeno[4,3-c]pyrazole 5,5-dioxide] | 20 nM |
| COCC(=O)N1CCC[C@H](n2nc(C(=O)N3CCOCC3)c3c2-c2ccccc2S(=O)(=O)C3)C1 (stereo in doubt) [Example 447, 1-[1-(methoxyacetyl)piperidin-3-yl]-3-(morpholin-4-ylcarbonyl)-1,4-dihydrothiochromeno[4,3-c]pyrazole 5,5-dioxide] | 261 nM |
| COCCN(CCOC)CCN1CCC[C@H](n2nc(C(=O)N3CCOCC3)c3c2-c2ccccc2S(=O)(=O)C3)C1 (stereo in doubt) [Example 448, 2-methoxy-N-(2-methoxyethyl)-N-(2-{3-[3-(morpholin-4-ylcarbonyl)-5,5-dioxidothiochromeno[4,3-c]pyrazol-1(4H)-yl]piperidin-1-yl}ethyl)ethanamine] | 113 nM |
